Laboratory results taken from paper PMC9290910, “Neuropilin‐1 is required for endothelial cell adhesion to soluble vascular endothelial growth factor receptor 1” (The Febs Journal, 2021).
Where no end group is shown, it is not given here.

B1: VEGFR‐1: Recombinant human VEGFR‐1/Fc (321‐FL‐050), R&D Systems (protein)
chain: SKLKDPELSLKGTQHIMQAGQTLHLQCRGEAAHKWSLPEMVSKESERLSITKSACGRNGKQFCSTLTLNTAQANHTGFYSCKYLAVPTSKKKETESAIYIFISDTGRPFVEMYSEIPEIIHMTEGRELVIPCRVTSPNITVTLKKFPLDTLIPDGKRIIWDSRKGFIISNATYKEIGLLTCEATVNGHLYKTNYLTHRQTNTIIDVQISTPRPVKLLRGHTLVLNCTATTPLNTRVQMTWSYPDEKNKRASVRRRIDQSNSHANIFYSVLTIDKMQNKDKGLYTCRVRSGPSFKSVNTSVHIYDKAFITVKHRKQQVLETVAGKRSYRLSMKVKAFPSPEVVWLKDGLPATEKSARYLTRGYSLIIKDVTEEDAGNYTILLSIKQSNVFKNLTATLIVNVKPQIYEKAVSSFPDPALYPLGSRQILTCTAYGIPQPTIKWFWHPCNHNHSEARCDFCSNNEESFILDADSNMGNRIESITQRMAIIEGKNKMASTLVVADSRISGIYICIASNKVGTVGRNISFYITDVPNGFHVNLEKMPTEGEDLKLSCTVNKFLYRDVTWILLRTVNNRTMHYSISKQKMAITKEHSITLNLTIMNVSLQDSGTYACRARNVYTGEEILQKKEITIRDQEAPYLLRNLSDHTVAISSSTTLDCHANGVPEPQITWFKNNHKIQQEPGIILGPGSSTLFIERVTEEDEGVYHCKATNQKGSVESSAYLTVQGTSDKSNLE
modifications: left off: Fc, end not stated, kept
notes: Recombinant human VEGFR‐1/Fc (321‐FL‐050), R&D Systems

Legend:
[1] = system: EC (HUVEC) adhesion to peptide 12; settings: cited from earlier work
From the text: (§1) To dissect whether interaction of NRP‐1 with the transmembrane or the soluble isoform of VEGFR‐1 was required for EC adhesion to sVEGFR‐1, we performed EC adhesion assays by substituting sVEGFR‐1 with a different adhesion substrate, named peptide 12.

angiogenesis = settings: cited from earlier work
From the text: as §1

α5β1 integrin = system: α5β1 integrin; parameters: method as in 2 sources, one per row (each row's own in cited_ref): ref 34, 36 = [34]; PMID 18184864; doi:10.1182/blood-2007-03-077537; 34 Soro S , Orecchia A , Morbidelli L , Lacal PM , Morea V , Ballmer‐Hofer K , Ruffini F , Ziche M , D'Atri S , Zambruno G et al . ( 2008 ) A proangiogenic peptide derived from vascular endothelial gr || [36]; PMID 18682321; doi:10.1016/j.ejca.2008.06.032; 36 Lacal PM , Morea V , Ruffini F , Orecchia A , Dorio AS , Failla CM , Soro S , Tentori L , Zambruno G , Graziani G et al . ( 2008 ) Inhibition of endothelial cell migration and angiogenesis by a vas ||| ref 34 = [34]; PMID 18184864; doi:10.1182/blood-2007-03-077537; 34 Soro S , Orecchia A , Morbidelli L , Lacal PM , Morea V , Ballmer‐Hofer K , Ruffini F , Ziche M , D'Atri S , Zambruno G et al . ( 2008 ) A proangiogenic peptide derived from vascular endothelial gr; settings: cited from earlier work
[2] = system: α5β1 integrin signalling in ECs; assay: Signalling activated by EC adhesion; type: cell-based; settings: myristoylated alanine‐rich C‐kinase substrate up-regulation, Rac1 activation; data not shown
[3] = system: EC (HUVEC) adhesion to peptide 12; assay: Cell adhesion assay, EC adhesion to peptide 12; type: cell-based, human; settings: plates coated with 500 µg·mL^−1 peptide 12
Protocol: Human umbilical vein endothelial cells (HUVEC) were isolated from freshly delivered umbilical cords, as previously described, cultured in Endothelial Cell Growth Medium‐2 Kit from Clonetics (EGM‐2, CC4176, Lonza, Basel, Switzerland), and used up to passage 6. For functional assays, HUVEC were resuspended in Endothelial Basal Medium‐2 (EBM‐2, CC3156, Lonza). A pool of cells derived from four different individuals was used.
Solid support for adhesion assay was prepared by incubating immunological 96‐multiwell plates with 20 µg·mL^−1 VEGFR‐1/Fc chimera, or fibronectin solubilized in PBS. After 2 h, the coating solution was removed, and the well surface was blocked with 3% BSA in PBS for 18 h, before plating ECs in serum‐free medium at 3 × 10^4 cells per well. After incubation at 37 °C for 1 h, the wells were washed with PBS and attached cells were fixed with 3% formaldehyde and stained with 0.5% crystal violet. Attachment efficiency was determined by quantitative dye extraction and spectrophotometric measurement of the absorbance at 540 nm, using a Microplate reader 3550‐UV (Bio‐Rad). In competition experiments, peptides Flt2‐11, scrambled Flt2‐11, Flt2‐8 or Flt2‐5, at 20 µg·mL^−1, were added during the adhesion assay. Adhesion to peptide 12 was carried out by using maleic anhydride activated microplates (Reacti‐Bind, Pierce, Rockford, IL, USA) coated with 500 µg·mL^−1 of the peptide.

NRP‐1 = assay: SPR, VEGFR‐1 binding to immobilized NRP‐1; parameters: species or system human; settings: NRP‐1 immobilized, VEGFR‐1 0.6-5 nM, 1:1 Langmuir model
Protocol: Fig. 2 Flt2‐11 peptide inhibits NRP‐1 binding to VEGFR‐1. SPR analysis of the interaction between VEGFR‐1 and NRP‐1 in peptide absence (A), or presence of Flt2‐11 peptide (B) or scrambled Flt2‐11 peptide (C). NRP‐1 is immobilized on the sensor chip. (A) VEGFR‐1 is injected at different concentrations (from bottom to top: 0.6 nM, cyan; 1 nM, red; 2 nM, green; 2.5 nM, blue; and 5 nM, black). […] (B) VEGFR‐1 is injected at 5 nM together with peptide Flt2‐11 at different concentrations (from top to bottom: 0, black; 5 nM, blue; 15 nM, green; 45 nM, red; 100 nM, cyan; and 800 nM, magenta). […] (C) VEGFR‐1 is injected at 5 nM together with ‘scrambled’ Flt2‐11 peptide at different concentrations (from top to bottom: 0, black; 0.5 μM, blue; 950 μM, geen; and […], red).
SPR experiments were carried out using a BIACORE X system (Biacore AB, Uppsala, Sweden). […] The reaction was carried out in 20 mM sodium acetate at pH 5.0, which is about 2 points below the theoretical NRP‐1 isoelectric point calculated using the program pI‐tool. […]
RU express the mass concentration‐dependent changes in the observed SPR signal, that is, the refractive index on the sensor chip surface. Changes in this signal are determined by the interaction between the immobilized protein (i.e., either NRP‐1 or VEGFR‐1) with the analyte protein (i.e., VEGFR‐1/Fc, α5β1 integrin or semaphorin 3A). […]

[4] = system: α5β1 integrin signalling in ECs; parameters: method as in PMID 24174428; settings: phosphorylation of focal adhesion kinase or Shc; cited from earlier work

Molecule | support of EC adhesion by peptide 12 [1] | pro‐angiogenic stimulus (angiogenesis) | binding to α5β1 integrin (α5β1 integrin) | signalling pathway activation by EC adhesion to peptide 12 [2] | EC adhesion to peptide 12 in the absence of NRP‐1 [3] | k off (NRP‐1) [s⁻¹] | k on (NRP‐1) [M⁻¹ s⁻¹] | activation of canonical α5β1 integrin signalling by EC adhesion to sVEGFR‐1 [4]
peptide 12: seven amino acid‐long peptide that maps on the second VEGFR‐1 Ig‐like domain (residues 219–225) (NYLTHRQ; also: biotin, position not given here) | support EC adhesion | pro‐angiogenic stimulus | able to directly bind α5β1 integrin | also activated | ECs adhere to peptide 12 in the absence of NRP‐1 |  |  | 
B1 |  |  |  |  |  | 0.0003 | 12000 | does not activate canonical α5β1 integrin signalling
